This is an account of results in patent US20100119587A1, “SOLID LIPIDIC […] AS PHARMACEUTICALLY ACCEPTABLE FILLERS OR […] FOR INHALATION” (UNIVERSITE LIBRE DE BRUXELLES, priority 2004, published 2010).

In brackets after ≈: the same amount, converted by molar mass.

Format in all cases: physicochemical
The nature of series [1]: In vitro deposition test, FPD/FPF by Multi-stage Liquid Impinger (tobramycin formulations). To be noted: Table 11, loaded dose = 15 mg, Cyclohaler 100 l/min 2.4 s, n = 3. The procedure: The Fine Particle Dose has been determined by the method described in the European Pharmacopoeia 4 for the aerodynamic assessment of fine particle, using Apparatus C—Multi-stage Liquid Impinger (MsLI) […] The flow rate was adjusted to a pressure drop of 4 kPa, as typical for inspiration by a patient, resulting in a flow rate of 100 l/min during 2.4 seconds. At least 3 FPD determinations were performed on each formulation and analysis were carried out by a suitable and validated analytical HPLC method. In order to increase the UV absorptivity of the molecule, a derivatization method was applied. The suitable and validated quantification method is described in the USP 25. The HPLC system consisted of a High Performance Liquid Chromatography system (HP 1100 series, Agilent technologies, Belgium), equipped with a quartenary pump, an autosampler and a variable wavelength UV detector set at 360 nm. The separation system was a 39 cm×3.9 mm stainless steel (5 μm particle size) reversed-phase C18 column (Alltima, Alltech, Belgium). Samples of 20 μl volume were injected. The mobile phase was prepared by dissolving 2 g of Tris(hydroxymethyl)aminomethane in 800 ml of water. […] The mass of test substance deposited on each stage was determined from the HPLC analysis of the recovered solutions. […] It is considered to be directly proportional to the amount of drug able to reach the pulmonary tract in vivo, and consequently, the higher the value FPD, the higher the estimated lung deposition.

A short description of series [2]: Particle size distribution by laser diffraction (Mastersizer 2000, dry sampling). How it is done:
For each SLP composition, the particle size distribution is measured by laser diffractometry, using a dry sampling system with a suitable SOP (Standard Operating Procedure), (Scirocco®, Mastersizer 2000, Malvern, UK).
The size distributions are expressed in terms of the mass median diameter d(0.5), i.e. the size in microns which 50% of the sample is smaller and 50% is larger, and in terms of the volume (mass) mean diameter D[4,3].

Series [3] in a line: Solubility in isopropanol. To be noted: organic solvent or mixture.

The solubility is how much of the substance goes into solution per volume. As to `NC[C@H]1O[C@H](O[C@H]2[C@H](O)[C@@H](O[C@H]3O[C@H](CO)[C@@H](O)[C@H](N)[C@H]3O)[C@H](N)C[C@@H]2N)[C@H](N)C[C@@H]1O` [Tobra μ, tobramycin], in series [1], the FPD turned out to be 7.2 ± 0.6 mg and the FPF stood at 48.1 ± 0.4%. The FPF result in series [1] (listed as uncoated micronized tobramycin) is recorded as “around 48%”. The “d (0.5)” value in series [2] (Table 10, Example 13, dry powder form, mean ± S.D., n = 3) was determined as 1.29 ± 0.02 μm. Further, in series [2] (Table 10, Example 13, dry powder form, n = 3), the “D [4, 3]” value was 1.54 ± 0.01 μm. Besides, the “% <5.0 μm” value in series [2] (Table 10, Example 13, n = 3) stood at 99.3 ± 0.2%. The solubility in series [3] was found to be 50 µg/mL (≈ 107 µM).
